In patent US10688197B2, “Non-alcoholic fatty liver regulator 14-3-3 protein” (Korea University Research and Business Foundation, priority 2015, dated 2020):

What was measured:
[1] = target: T1, PPAR-RXR complex (Homo sapiens, UniProt P37231); assay: Formation of the PPAR-RXR complex; type: cell-based; conditions: overexpression, FIG. 8C
T1 sequence (P37231 1-505): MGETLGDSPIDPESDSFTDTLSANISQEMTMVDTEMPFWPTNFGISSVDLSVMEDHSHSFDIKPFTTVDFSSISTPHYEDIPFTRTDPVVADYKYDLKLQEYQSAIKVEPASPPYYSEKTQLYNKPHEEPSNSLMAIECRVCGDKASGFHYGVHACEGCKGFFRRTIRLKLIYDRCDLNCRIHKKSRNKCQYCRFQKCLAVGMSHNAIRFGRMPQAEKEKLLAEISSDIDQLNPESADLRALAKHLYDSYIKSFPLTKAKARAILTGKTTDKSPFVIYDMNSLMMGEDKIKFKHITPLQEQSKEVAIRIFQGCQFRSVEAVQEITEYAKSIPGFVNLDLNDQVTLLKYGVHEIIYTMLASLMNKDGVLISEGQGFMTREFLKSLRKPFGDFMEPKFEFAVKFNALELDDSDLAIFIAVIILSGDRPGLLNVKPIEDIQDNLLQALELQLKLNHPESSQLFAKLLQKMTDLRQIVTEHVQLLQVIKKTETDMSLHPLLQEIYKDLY
T1 sequence (P19793 1-462 partner): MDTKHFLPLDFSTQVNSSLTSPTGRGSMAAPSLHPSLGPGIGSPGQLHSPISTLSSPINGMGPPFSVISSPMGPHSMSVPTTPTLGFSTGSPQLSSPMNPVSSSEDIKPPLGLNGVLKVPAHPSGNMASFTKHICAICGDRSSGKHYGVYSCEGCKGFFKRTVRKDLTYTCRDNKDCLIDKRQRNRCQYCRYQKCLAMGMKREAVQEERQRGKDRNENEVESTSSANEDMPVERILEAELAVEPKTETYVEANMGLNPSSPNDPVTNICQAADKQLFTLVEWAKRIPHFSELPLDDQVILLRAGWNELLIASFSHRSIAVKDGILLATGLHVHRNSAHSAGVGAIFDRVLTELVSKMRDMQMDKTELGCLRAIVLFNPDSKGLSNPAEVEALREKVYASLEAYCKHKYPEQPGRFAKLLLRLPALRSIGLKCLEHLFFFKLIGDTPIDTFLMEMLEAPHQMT

[2] = tested on: primary mouse hepatocytes; assay: Triglyceride colorimetric assay in primary mouse hepatocytes; type: cell-based; conditions: FIG. 10A
Procedure: (§1) HepG2 cells and primary mouse hepatocytes were separately seeded in a 6-well plate at a density of 4×10^5 cells per each well, and then transfected with GFP-14-3-3β DNA (1 μg) or GFP-14-3-3γ DNA (1 μg) and si-14-3-3β (10 μM, Santa Cruz) or si-14-3-3γ (10 μM, Santa Cruz) using an E-fection plus reagent (Lugen). A ratio of DNA to the E-fection plus reagent was 1:2, and this method was performed according to a manufacturer's manual. After transfection, the cells were treated with 200 μM of oleic acid (OA) for 72 hours, and the amount of triglycerides was measured using a triglyceride colorimetric assay kit (Cayman Chemical). The corresponding cells were washed with ice-cold PBS and then scraped using a standard diluent assay reagent, the scrapping process was repeated using a sonicator 20 times to lyse the cells, and the lysed cells were reacted with an enzyme buffer solution for 15 minutes, followed by measurement using an ELISA reader (Bio-Rad Laboratories, Inc) at a wavelength of 550 nm.

[3] = tested on: primary mouse hepatocytes; assay: Oil Red-O lipid accumulation in primary mouse hepatocytes; type: cell-based; conditions: for lipid accumulation by oleic acid: overexpression, 200 μM oleic acid 72 hours, FIG. 9B
Procedure: HepG2 cells and primary mouse hepatocytes were separately seeded in a 6-well plate at a density of 4×10^5 cells per each well, and then transfected with GFP-14-3-3β DNA (1 μg) or GFP-14-3-3γ DNA (1 μg) and si-14-3-3β (10 μM, Santa Cruz) or si-14-3-3γ (10 μM, Santa Cruz) using an E-fection plus reagent (Lugen). A ratio of DNA to the E-fection plus reagent was 1:2, and this method was performed according to a manufacturer's manual. […] The stained cells were bleached with 1 ml of isopropanol and analyzed at a wavelength of 550 nm using a DU530 spectrophotometer (Beckman Instruments, Palo Alto, Calif.).

[4] = tested on: HepG2 cells; assay: Triglyceride colorimetric assay in HepG2 cells; type: cell-based, human; conditions: HepG2, overexpression, 200 μM oleic acid 72 hours, FIG. 10A
Procedure: as §1

[5] = tested on: SREBP-1c protein; assay: SREBP-1c protein expression by western blotting in HepG2 cells; type: cell-based; conditions: HepG2, overexpression, 200 μM oleic acid 72 hours, FIG. 7D
Procedure: In addition, HepG2 cells were seeded in a 6-well plate at a density of 5×10^5 cells per each well, and then transfected with HA-14-3-3β DNA (1 μg) or HA-14-3-3γ DNA (1 μg) using an E-fection plus reagent (Lugen). A ratio of DNA to the E-fection plus reagent was 1:2, and this method was performed according to a manufacturer's manual. After transfection, the cells were treated with 200 μM of oleic acid (OA) for 72 hours, washed with ice-cold PBS, and lysed with 80 μl/well of a lysis buffer (150 mM NaCl, 1 mM EDTA, 1% Nonidet P-40, 5% glycerol, 25 mM tris-HCl, pH 7.5, protease inhibitor added), the lysed cells were centrifuged at 10,000×g and 4° C. for 10 minutes to extract proteins, and 30 μg of the proteins was separated on a 10% SDS-PAGE gel and identified using each of the antibodies (HA, SREBP-1c: Santa Cruz) by western blotting, and all antibodies were used in a ratio of 1:3000.

[6] = primary mouse hepatocytes, overexpression, 200 μM oleic acid 72 hours

For “14-3-3β: 14-3-3 isoform protein overexpressed by DNA transfection; increases the transcriptional activity of PPARγ2 by binding to PPARγ2”, which “formation of the PPAR-RXR complex” value [1] is on record?
The value was “did not affect”.

And the triglyceride accumulation [2, 6]?
Its triglyceride accumulation is “further increased”.

And the “lipid accumulation by oleic acid” value [3]?
The value was “increased”.

What about the triglyceride accumulation [4] of the same compound?
Its triglyceride accumulation is “further increased”.

And the “expression of the SREBP-1c protein” value [5]?
The value was “increased”.

CCCCCCCC/C=C\CCCCCCCC(=O)O [oleic acid] was tested. Which triglyceride accumulation ([2]; primary mouse hepatocytes treated with oleic acid) did it give?
The triglyceride accumulation was “increased”.

What about the lipid accumulation ([3]; concentration-dependent treatment of oleic acid, FIG. 9A) of the same compound?
The lipid accumulation was “increased”.

Which “formation of the PPAR-RXR complex” value [1] does the source give for “14-3-3γ: 14-3-3 isoform protein overexpressed by DNA transfection; decreases the transcriptional activity of PPARγ2; proposed active ingredient” here?
Its value is “did not affect”.

And the triglyceride accumulation [2, 6]?
Its triglyceride accumulation is “reduced”.

And the “lipid accumulation by oleic acid” value [3]?
Its value is “reduced”.

What about the triglyceride accumulation [4] of the same compound?
Its triglyceride accumulation is “reduced”.

What about the “expression of the SREBP-1c protein” value [5] of the same compound?
The value was “reduced”.
